In brackets after ≈: the same amount, converted by molar mass. Blank lines part the entries; values can stand above or below the compound they belong to.
Columns and labels:
Experiment in all cases: ≥ marks a high value that may be exact or a test limit, other limits are often not marked, values filed in µg/mL are converted to µM
[1] = tested on: Acinetobacter baumannii
[2] = tested on: Candida glabrata 0902
[3] = tested on: Staphylococcus aureus 090223
[4] = tested on: Aeromonas sobria 090223
[5] = tested on: Nocardia asteroides 090312
[6] = tested on: Staphylococcus aureus 1349
[7] = tested on: Klebsiella pneumoniae
[8] = tested on: Staphylococcus aureus ATCC 2592
[9] = tested on: Enterococcus faecium 1299
[10] = tested on: Proteus mirabilis 090223
[11] = tested on: Stenotrophomonas maltophilia 090223
[12] = tested on: Candida albicans ATCC 2002
[13] = tested on: Escherichia coli 1342
[14] = tested on: Escherichia coli ATCC 25922
[15] = tested on: Escherichia coli ATCC 28922
[16] = tested on: Citrobacter freundii ATCC 8090
[17] = tested on: Pseudomonas aeruginosa ATCC 9027
[18] = tested on: Escherichia coli D31
[19] = tested on: Salmonella typhimurium
[20] = tested on: Staphylococcus haemolyticus
[21] = tested on: Alcaligenes faecalis
[22] = tested on: Pseudomonas aeruginosa
[23] = tested on: Enterobacter cloacae
[24] = tested on: Micrococcus luteus IFO 12708
[25] = tested on: Staphylococcus epidermidis
[26] = tested on: Dermacoccus nishinomiyaensis
[27] = tested on: Staphylococcus aureus
[28] = tested on: Klebsiella aerogenes
[29] = tested on: Staphylococcus saprophyticus
[30] = tested on: Bacillus megaterium
[31] = tested on: Aeromonas hydrophila
[32] = tested on: Vibrio alginolyticus
[33] = tested on: Haemophilus Influenzae
[34] = tested on: Peptostreptococcus anaerobius
[35] = tested on: Proteus mirabilis ATCC 25933
[36] = tested on: Salmonella enterica subsp. enterica serovar Typhimurium LT2
[37] = tested on: Peptoniphilus asaccharolyticus ATCC 29743
[38] = tested on: Enterococcus faecalis ATCC 29212
[39] = tested on: Fusobacterium nucleatum
[40] = tested on: Prevotella melaninogenica
[41] = tested on: Staphylococcus aureus NCTC 8325
[42] = tested on: Staphylococcus aureus T7/5
[43] = tested on: Pseudomonas aeruginosa ATCC 27853
[44] = tested on: Staphylococcus aureus T17/13
[45] = tested on: Clostridium septicum
[46] = tested on: Staphylococcus epidermidis RP62A
[47] = tested on: Klebsiella pneumoniae KK3 9904
[48] = tested on: Fusobacterium varium ATCC 27725
[49] = tested on: Cutibacterium acnes ATCC 11828
[50] = tested on: Bacteroides fragilis
[51] = tested on: Candida albicans ATCC 90028
[52] = tested on: Bacteroides fragilis ATCC 25285
[53] = tested on: Cutibacterium acnes
[54] = tested on: Clostridium tertium ATCC 19465
[55] = tested on: Enterobacter cloacae HNTCC 53001
[56] = tested on: Clostridium perfringens ATCC 10543

MIC [1]: 5.69 µM (≈ 13.3 µg/mL)
MIC [2]: 16 µM (≈ 37.5 µg/mL)
MIC [3]: 0.984 µM (≈ 2.3 µg/mL)
MIC [4]: 4.02 µM (≈ 9.39 µg/mL)
MIC [5]: 8.04 µM (≈ 18.8 µg/mL)
MIC [6]: 8.04 µM (≈ 18.8 µg/mL)
MIC [7]: > 42.8 µM
MIC [8]: 8.04 µM (≈ 18.8 µg/mL)
MIC [9]: 2.01 µM (≈ 4.7 µg/mL)
MIC [10]: 4.02 µM (≈ 9.39 µg/mL)
MIC [11]: 2.01 µM (≈ 4.7 µg/mL)
MIC [12]: 0.984 µM (≈ 2.3 µg/mL)
MIC [13]: 2.01 µM (≈ 4.7 µg/mL)
MIC [14]: 8.04 µM (≈ 18.8 µg/mL)
Compound: CC[C@H](C)[C@@H]1NC(=O)[C@H](CC(C)C)NC(=O)[C@@H](NC(=O)[C@H](Cc2ccccc2)NC(=O)[C@H](CC(C)C)NC(=O)[C@H](CO)NC(=O)[C@@H]2CCCN2C(=O)[C@H](CC(C)C)NC(=O)[C@H](CCCN=C(N)N)NC(=O)[C@H](CCCCN)NC(=O)[C@@H](NC(=O)[C@@H](NC(=O)[C@H](C)NC(=O)CNC(=O)[C@H](CC(C)C)NC(=O)[C@H](C)NC(=O)[C@@H](N)Cc2ccccc2)C(C)C)[C@@H](C)O)CSSC[C@@H](C(=O)O)NC(=O)[C@H](CCCCN)NC(=O)[C@H](CCCN=C(N)N)NC(=O)[C@H]([C@@H](C)O)NC1=O [FALGAVTKRLPSLFCLITRKC]

MIC [15]: ≥ 50 µM
MIC [16]: ≥ 75 µM
MIC [17]: 8 µM (≈ 14.1 µg/mL)
Compound: CC(C)C[C@H](NC(=O)[C@H](CC(C)C)NC(=O)CNC(=O)CNC(=O)CNC(=O)CNC(=O)CNC(=O)CNC(=O)CNC(=O)CNC(=O)CNC(=O)[C@H](CC(C)C)NC(=O)[C@H](CC(C)C)NC(=O)[C@@H]1CCCN1C(=O)CNC(=O)[C@H](CC(C)C)NC(=O)[C@H](CC(C)C)NC(=O)CNC(=O)CNC(=O)[C@H](CC(C)C)NC(=O)[C@H](CC(C)C)NC(=O)CN)C(=O)O [GLLGGLLGPLLGGGGGGGGGLL]

Compound: CC(C)C[C@H](NC(=O)[C@H](Cc1c[nH]c2ccccc12)NC(=O)[C@H](C)NC(=O)CNC(=O)[C@@H](N)CC(C)C)C(=O)N[C@@H](C)C(=O)NCC(=O)N[C@@H](CCCCN)C(=O)N[C@H](C(=O)N[C@@H](C)C(=O)NCC(=O)N[C@H](C(=O)N[C@H](C(=O)N[C@@H](C)C(=O)N[C@H](C(=O)N[C@@H](Cc1ccc(O)cc1)C(=O)N[C@@H](C)C(=O)N[C@@H](Cc1c[nH]c2ccccc12)C(=O)N[C@@H](CC(N)=O)C(=O)N[C@@H](CCCN=C(N)N)C(=O)N[C@@H](Cc1ccc(O)cc1)C(=O)N[C@H](C(N)=O)C(C)C)[C@@H](C)O)C(C)C)[C@@H](C)O)C(C)C [LGAWLAGKVAGTVATYAWNRYV]
MIC [18]: 25 µM (≈ 59.2 µg/mL)
MIC [19]: 25 µM (≈ 59.2 µg/mL)
MIC [1]: 25 µM (≈ 59.2 µg/mL)
MIC [20]: 4.24 µM (≈ 10 µg/mL)
MIC [21]: 25 µM (≈ 59.2 µg/mL)
MIC [22]: > 25 µM
MIC [23]: 25 µM (≈ 59.2 µg/mL)
MIC [24]: 0.566 µM (≈ 1.34 µg/mL)
MIC [25]: 4.24 µM (≈ 10 µg/mL)
MIC [26]: 0.566 µM (≈ 1.34 µg/mL)
MIC [27]: 4.24 µM (≈ 10 µg/mL)
MIC [28]: 25 µM (≈ 59.2 µg/mL)
MIC [29]: 4.24 µM (≈ 10 µg/mL)
MIC [30]: 25 µM (≈ 59.2 µg/mL)
MIC [31]: 25 µM (≈ 59.2 µg/mL)
MIC [32]: 1.13 µM (≈ 2.68 µg/mL)
MIC [33]: 25 µM (≈ 59.2 µg/mL)

MIC [34]: 25 µM (≈ 65.7 µg/mL)
MIC [35]: ≥ 100 µM
MIC [36]: 25 µM (≈ 65.7 µg/mL)
MIC [37]: ≥ 50 µM
MIC [38]: 12.5 µM (≈ 32.9 µg/mL)
MIC [39]: ≥ 50 µM
MIC [40]: 6 µM (≈ 15.8 µg/mL)
MIC [41]: ≥ 40 µM
MIC [42]: 20 µM (≈ 52.6 µg/mL)
MIC [43]: 6 µM (≈ 15.8 µg/mL)
MIC [44]: 10 µM (≈ 26.3 µg/mL)
MIC [45]: ≥ 50 µM
MIC [46]: 6 µM (≈ 15.8 µg/mL)
MIC [47]: 12.5 µM (≈ 32.9 µg/mL)
MIC [48]: ≥ 50 µM
MIC [49]: 12.5 µM (≈ 32.9 µg/mL)
MIC [50]: ≥ 50 µM
MIC [51]: ≥ 80 µM
MIC [52]: ≥ 50 µM
MIC [53]: 6 µM (≈ 15.8 µg/mL)
MIC [54]: 12.5 µM (≈ 32.9 µg/mL)
MIC [55]: 6 µM (≈ 15.8 µg/mL)
MIC [14]: 2.5 µM (≈ 6.57 µg/mL)
MIC [56]: 12.5 µM (≈ 32.9 µg/mL)
Compound: CC[C@H](C)[C@H](NC(=O)[C@@H](N)CCCN=C(N)N)C(=O)NCC(=O)N[C@H](C(=O)N[C@@H](CC(C)C)C(=O)N[C@@H](CC(C)C)C(=O)N[C@@H](C)C(=O)N[C@@H](CCCN=C(N)N)C(=O)N[C@@H](CC(C)C)C(=O)N1CCC[C@H]1C(=O)N[C@@H](CCCCN)C(=O)N[C@@H](CC(C)C)C(=O)N[C@@H](Cc1ccccc1)C(=O)N[C@@H](CO)C(=O)N[C@@H](CC(C)C)C(=O)N[C@@H](Cc1ccccc1)C(=O)N[C@@H](CCCCN)C(=O)N[C@@H](CC(C)C)C(=O)N[C@@H](CCSC)C(=O)NCC(=O)N[C@@H](CCCCN)C(=O)N[C@@H](CCCCN)C(=O)N[C@H](C(=O)O)C(C)C)C(C)C [RIGVLLARLPKLFSLFKLMGKKV]

Reference: DBAASP
